Assay [1] addresses T1, DDR2 (Homo sapiens, UniProt Q16832).
T1 sequence (Q16832 22-855): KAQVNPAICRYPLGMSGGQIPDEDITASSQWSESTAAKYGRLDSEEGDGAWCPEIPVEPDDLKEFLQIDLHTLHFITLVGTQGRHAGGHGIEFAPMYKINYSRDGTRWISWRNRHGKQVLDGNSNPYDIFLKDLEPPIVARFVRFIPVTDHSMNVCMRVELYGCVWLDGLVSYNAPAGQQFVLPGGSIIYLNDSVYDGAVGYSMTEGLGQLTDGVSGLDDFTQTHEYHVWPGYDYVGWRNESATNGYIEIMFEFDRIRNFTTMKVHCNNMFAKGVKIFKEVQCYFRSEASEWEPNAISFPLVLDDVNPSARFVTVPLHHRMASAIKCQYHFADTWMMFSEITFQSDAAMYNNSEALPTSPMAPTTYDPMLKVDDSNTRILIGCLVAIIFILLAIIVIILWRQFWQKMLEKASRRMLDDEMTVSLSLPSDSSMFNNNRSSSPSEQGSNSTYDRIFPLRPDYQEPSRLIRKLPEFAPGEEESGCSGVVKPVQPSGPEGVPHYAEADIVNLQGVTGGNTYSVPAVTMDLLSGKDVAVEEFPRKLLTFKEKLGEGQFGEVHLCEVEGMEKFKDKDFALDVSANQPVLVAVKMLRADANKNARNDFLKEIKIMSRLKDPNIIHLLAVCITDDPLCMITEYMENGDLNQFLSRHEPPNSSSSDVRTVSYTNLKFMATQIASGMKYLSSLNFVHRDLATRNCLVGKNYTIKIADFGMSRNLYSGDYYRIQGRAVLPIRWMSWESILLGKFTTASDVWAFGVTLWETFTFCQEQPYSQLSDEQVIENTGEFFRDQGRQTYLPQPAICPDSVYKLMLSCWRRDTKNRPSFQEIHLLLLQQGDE
Kind of assay: DDR2 cell based assay (phospho-ELISA in HEK293T-DDR2 recombinant cells). Details: expressed in transfected cells; host or cells: HEK293T-DDR2 recombinant cells. As to conditions: bovine Type II Collagen 50 μg/ml. Here is the method: The inhibition of DDR2 phosphorylation by compounds was evaluated in HEK293T-DDR2 recombinant cells by phospho-ELISA assay. Briefly, HEK293T-DDR2 cells were seeded in poly-D-lysine-coated 24-well plates at a density of 250.000 cells/well and incubated for 1.5 hours at 37° C. and 5% CO2 in DMEM+10% FBS. After that, the medium was changed to serum-free DMEM and cells were incubated for 3 hours. Then. test compounds were added at different concentrations 30 minutes before stimulation with bovine Type II Collagen at 50 μg/ml for further 3 hours. For DDR2 phospho-ELISA assay (DuoSet IC Human Phospho-DDR2; R&D Systems), protein extracts were obtained by adding 60 μl/well of lysis buffer prepared according to the manufacturer's instructions. Protein concentration in the samples was determined by BCA assay and the levels of phospho-DDR2 were determined following R&D Systems indications. Raw data were normalized to maximal inhibition control (0% for normalization) and positive control (100% for normalization; cells treated with […] collagen II) and IC50 parameters were calculated in GraphPad Prism 8.0 software, using sigmoidal dose-response curve fitting with variable slope.
In general terms: In an ELISA, binding on a coated surface is turned into a signal by an enzyme label.

Assay [2] concerns the target T2, DDR1 (Homo sapiens, UniProt Q08345). The experiment in a line: DDR1 binding assay (LanthaScreen Europium Kinase Binding assay). Details: purchased Carna Biosciences. The note with it: binding assay, 5 nM DDR1, 20 nM Kinase Tracer 178; Ki from IC50 by Cheng-Prusoff; read-out: Ki DDR1. Put shortly:
(§1)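 Compounds incubated 1 h at room temperature with 5 nM kinase, Kinase Tracer 178 (20 nM for DDR1, 10 nM for DDR2) and 2 nM Eu-anti-GST antibody in pH 7.5 HEPES/MgCl2/EGTA/BRIJ35 buffer. TR-FRET 665/615 nm ratio read after 340 nm excitation; IC50 from 4-parameter fit, converted to Ki by Cheng-Prusoff.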

The target in assay [3] is T1, DDR2. Kind of assay: DDR2 binding assay (LanthaScreen Europium Kinase Binding assay). As to conditions: binding assay, 5 nM DDR2, 10 nM Kinase Tracer 178; Ki from IC50 by Cheng-Prusoff; read-out: Ki DDR2. Details: purchased Life Technologies. Put shortly: as §1
A general note: TR-FRET usually uses a lanthanide donor and a delayed reading to cut background.

The target of assay [4] is T2, DDR1. The experiment in a line: DDR1 cell based assay (PathHunter U2OS DDR1 assay). Details: host or cells: U2OS-DDR1 (PathHunter). As to conditions: U2OS-DDR1 cells, bovine Type II Collagen 20 μg/ml. Put shortly:
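U2OS-DDR1 PathHunter cells preincubated 30 min with compound, then stimulated overnight at 37 °C with 20 μg/ml bovine type II collagen. Luminescent complementation signal read after 1 h detection at room temperature; normalized to vehicle (0%) and collagen-only (100%) controls, IC50 from variable-slope sigmoidal fit.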

Each structure is given as a SMILES string. Bounds are passed on as bounds.

T2 sequence (Q08345 19-913): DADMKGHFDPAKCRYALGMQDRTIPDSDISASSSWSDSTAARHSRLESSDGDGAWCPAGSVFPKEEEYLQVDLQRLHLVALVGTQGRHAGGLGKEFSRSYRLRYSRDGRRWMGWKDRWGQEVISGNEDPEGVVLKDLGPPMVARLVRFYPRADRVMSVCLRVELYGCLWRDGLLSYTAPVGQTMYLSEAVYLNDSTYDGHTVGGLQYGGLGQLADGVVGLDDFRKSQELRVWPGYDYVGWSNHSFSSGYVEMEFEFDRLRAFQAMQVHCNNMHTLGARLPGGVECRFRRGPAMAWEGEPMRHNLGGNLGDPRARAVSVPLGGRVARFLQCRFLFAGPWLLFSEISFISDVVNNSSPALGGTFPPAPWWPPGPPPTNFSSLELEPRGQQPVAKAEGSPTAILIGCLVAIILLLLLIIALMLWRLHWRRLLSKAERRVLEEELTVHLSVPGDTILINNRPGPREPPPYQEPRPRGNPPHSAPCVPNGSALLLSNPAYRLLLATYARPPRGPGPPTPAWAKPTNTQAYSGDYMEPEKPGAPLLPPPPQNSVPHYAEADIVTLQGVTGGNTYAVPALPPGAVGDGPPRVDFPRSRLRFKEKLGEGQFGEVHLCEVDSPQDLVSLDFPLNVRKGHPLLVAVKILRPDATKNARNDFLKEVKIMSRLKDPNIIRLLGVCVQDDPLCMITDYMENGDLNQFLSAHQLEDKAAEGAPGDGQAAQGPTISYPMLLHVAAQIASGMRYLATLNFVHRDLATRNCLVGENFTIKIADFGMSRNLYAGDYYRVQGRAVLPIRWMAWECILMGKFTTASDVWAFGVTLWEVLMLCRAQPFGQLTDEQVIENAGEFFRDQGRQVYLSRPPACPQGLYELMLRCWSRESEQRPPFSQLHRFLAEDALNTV

In general, IC50 refers to the concentration at which inhibition is half-maximal. As a reminder, the Ki is the dissociation constant of the complex between target and ligand, obtained from inhibition or displacement. As to `CC1Cc2c(C(=O)Nc3cccc(C(F)(F)F)c3)csc2CN1Cc1cnc2cnccn12` (single isomer, unassigned) [Example 104, 6-(imidazo[1,2-a]pyrazin-3-ylmethyl)-5-methyl-N-(3-(trifluoromethyl)phenyl)-4,5,6,7-tetrahydrothieno[2,3-c]pyridine-3-carboxamide], the figures for the half-maximal inhibitory concentration (IC50) in assay [1] and in assay [4] were 50 to 80 nM and less than 25 nM, respectively. The Ki in assay [2] and in assay [3] was less than 25 nM each time.
In the case of `CC1c2scc(C(=O)Nc3cccc(C(F)(F)F)c3)c2CCN1Cc1cnc2[nH]ccc2c1` (single isomer, unassigned) [Example 106, 6-((1H-pyrrolo[2,3-b]pyridin-5-yl)methyl)-7-methyl-N-(3-(trifluoromethyl)phenyl)-4,5,6,7-tetrahydrothieno[2,3-c]pyridine-3-carboxamide], the IC50 was 25 to 50 nM in assay [1] and less than 25 nM in assay [4]. Further, the Ki in assay [2] and in assay [3] was less than 25 nM each time.
In the case of `CN1CCN(Cc2cc(NC(=O)c3csc4c3CCN(C(=O)c3cnc5ccccn35)C4)cc(C(F)(F)F)c2)CC1` [Example 1, 6-(imidazo[1,2-a]pyridine-3-carbonyl)-N-(3-((4-methylpiperazin-1-yl)methyl)-5-(trifluoromethyl)phenyl)-4,5,6,7-tetrahydrothieno[2,3-c]pyridine-3-carboxamide], the IC50 in assay [1] is less than 25 nM; in assay [4] it was 25 to 50 nM. The Ki in assay [2] and in assay [3] was less than 25 nM each time.
Consider `Cn1nc(C(C)(C)C)cc1NC(=O)c1csc2c1CCN(C(=O)c1cnc3ccccn13)C2` [Example 3, N-(3-(tert-butyl)-1-methyl-1H-pyrazol-5-yl)-6-(imidazo[1,2-a]pyridine-3-carbonyl)-4,5,6,7-tetrahydrothieno[2,3-c]pyridine-3-carboxamide], for which the IC50 in assay [1] and in assay [4] was less than 25 nM in each case. In addition, the inhibition constant (Ki) in assay [2] and in assay [3] was less than 25 nM throughout.
On to `COc1ccc(NC(=O)c2csc3c2CCN(C(=O)c2cnc4ccccn24)C3)cc1C(F)(F)F` [Example 4, 6-(imidazo[1,2-a]pyridine-3-carbonyl)-N-(4-methoxy-3-(trifluoromethyl)phenyl)-4,5,6,7-tetrahydrothieno[2,3-c]pyridine-3-carboxamide], for which the IC50 in assay [1] and in assay [4] was less than 25 nM each time. Further, the Ki in assay [2] and in assay [3] was less than 25 nM each time.
For the molecule `O=C(Nc1cccc(C(F)(F)F)c1)c1csc2c1CCN(C(=O)c1cnc3ccccn13)C2` [Example 7, 6-(imidazo[1,2-a]pyridine-3-carbonyl)-N-(3-(trifluoromethyl)phenyl)-4,5,6,7-tetrahydrothieno[2,3-c]pyridine-3-carboxamide], the IC50 in assay [1] and in assay [4] was less than 25 nM each time. Moreover, the Ki in assay [2] and in assay [3] was less than 25 nM throughout.
`O=C(Nc1cccc(OC(F)(F)F)c1)c1csc2c1CCN(C(=O)c1cnc3ccccn13)C2` [Example 8, 6-(imidazo[1,2-a]pyridine-3-carbonyl)-N-(3-(trifluoromethoxy)phenyl)-4,5,6,7-tetrahydrothieno[2,3-c]pyridine-3-carboxamide]: the IC50 in assay [1] and in assay [4] was less than 25 nM in each case. The inhibition constant (Ki) in assay [2] and in assay [3] was less than 25 nM each time.
With `CC(C)(c1cc(NC(=O)c2csc3c2CCN(C(=O)c2cnc4ccccn24)C3)no1)C(F)(F)F` [Example 9, 6-(imidazo[1,2-a]pyridine-3-carbonyl)-N-(5-(1,1,1-trifluoro-2-methylpropan-2-yl)isoxazol-3-yl)-4,5,6,7-tetrahydrothieno[2,3-c]pyridine-3-carboxamide], the IC50 in assay [1] and in assay [4] was less than 25 nM throughout. The Ki in assay [2] and in assay [3] was less than 25 nM in each case.
As for `O=C(Nc1ccc(OC2CCOC2)c(C(F)(F)F)c1)c1csc2c1CCN(C(=O)c1cnc3ccccn13)C2` (centres unmarked) [Example 12, 6-(imidazo[1,2-a]pyridine-3-carbonyl)-N-(4-((tetrahydrofuran-3-yl)oxy)-3-(trifluoromethyl)phenyl)-4,5,6,7-tetrahydrothieno[2,3-c]pyridine-3-carboxamide], the IC50 in assay [1] and in assay [4] was less than 25 nM each time. For the same molecule, the Ki in assay [2] and in assay [3] was less than 25 nM throughout.
For `O=C(Nc1cc(CN2CCOCC2)cc(C(F)(F)F)c1)c1csc2c1CCN(C(=O)c1cnc3ccccn13)C2` [Example 20, 6-(imidazo[1,2-a]pyridine-3-carbonyl)-N-(3-(morpholinomethyl)-5-(trifluoromethyl)phenyl)-4,5,6,7-tetrahydrothieno[2,3-c]pyridine-3-carboxamide], the IC50 in assay [1] and in assay [4] was less than 25 nM each time. Moreover, the Ki in assay [2] and in assay [3] was less than 25 nM in each case.
On to `O=C(Nc1ccc(CN2CCOCC2)c(C(F)(F)F)c1)c1csc2c1CCN(C(=O)c1cnc3ccccn13)C2` [Example 23, 6-(imidazo[1,2-a]pyridine-3-carbonyl)-N-(4-(morpholinomethyl)-3-(trifluoromethyl)phenyl)-4,5,6,7-tetrahydrothieno[2,3-c]pyridine-3-carboxamide], for which the IC50 in assay [1] is 25 to 50 nM; in assay [4] it was less than 25 nM. Also, the Ki in assay [2] and in assay [3] was less than 25 nM throughout.
As for `O=C(Nc1cc(OCCN2CCOCC2)cc(C(F)(F)F)c1)c1csc2c1CCN(C(=O)c1cnc3ccccn13)C2` [Example 24, 6-(imidazo[1,2-a]pyridine-3-carbonyl)-N-(3-(2-morpholinoethoxy)-5-(trifluoromethyl)phenyl)-4,5,6,7-tetrahydrothieno[2,3-c]pyridine-3-carboxamide], the IC50 in assay [1] is 25 to 50 nM; in assay [4] it was less than 25 nM. Also, the Ki in assay [2] and in assay [3] was less than 25 nM in each case.
Turning to `O=C(Nc1cc(F)cc(C(F)(F)F)c1)c1csc2c1CCN(C(=O)c1cnc3ccccn13)C2` [Example 46, N-(3-fluoro-5-(trifluoromethyl)phenyl)-6-(imidazo[1,2-a]pyridine-3-carbonyl)-4,5,6,7-tetrahydrothieno[2,3-c]pyridine-3-carboxamide], the IC50 in assay [1] and in assay [4] was less than 25 nM each time. Moreover, the Ki in assay [2] and in assay [3] was less than 25 nM in each case.
For the molecule `O=C(Nc1cccc(OC(F)(F)F)c1)c1csc2c1CCN(Cc1cnc3[nH]ncc3c1)C2` [Example 66, 6-((1H-pyrazolo[3,4-b]pyridin-5-yl)methyl)-N-(3-(trifluoromethoxy)phenyl)-4,5,6,7-tetrahydrothieno[2,3-c]pyridine-3-carboxamide], the IC50 in assay [1] and in assay [4] was less than 25 nM in each case. Moreover, the Ki in assay [2] and in assay [3] was less than 25 nM in each case.

Values taken from patent US20240391936A1, “TETRAHYDROTHIENO PYRIDINE DERIVATIVES AS DDRS INHIBITORS” (CHIESI FARMACEUTICI S.P.A., priority 2021, published 2024).
